Laboratory results: ChEMBL document CHEMBL3885861, “Open TG-GATES”

Species on record: Rattus norvegicus
Experiment: Open TG-GATES - Regimen: Single
Format: toxicity, organism-based, Sprague-Dawley
Design: regimen Single, gender Male, age 6 weeks
Conditions: in vivo, po, 1000 mg/kg, route gavage, dose level Middle; for APTT / Bas / Eos / Fbg / Hb / Ht / Lym / MCH / MCHC / MCV / Mono / Neu / PT / Plat / RBC / Ret / WBC: tissue Blood; for KIDNEY_L / KIDNEY_R / KIDNEY_TOTAL: tissue Kidney; for LIVER: tissue Liver; for A/G / ALP / ALT / AST / BUN / CRE / Ca / Cl / DBIL / GLC / IP / K / LDH / Na / PL / RALB / TBIL / TC / TG / TP / gamma-GTP: tissue Plasma

## CCN1CCCC1CNC(=O)c1cc(S(N)(=O)=O)ccc1OC (configuration not stated) [SULPIRIDE]
3 h
  TERMINAL_BW: 201.4 g
  APTT: 17.3 s
  Bas: 0%
  Eos: 0.6%
  Fbg: 253.4 mg/dL
  Hb: 12.6 g/dL
  Ht: 39.6%
  Lym: 78.4%
  MCH: 20.8 pg
  MCHC: 31.8%
  MCV: 65.2 fL
  Mono: 3.4%
  Neu: 16.8%
  PT: 13.6 s
  Plat: 109.3 x10_4/uL
  RBC: 608 x10_4/ul
  Ret: 8.1%
  WBC: 83.5 x10_2/uL
  KIDNEY_L: 0.9 g
  KIDNEY_R: 0.9 g
  KIDNEY_TOTAL: 1.8 g
  LIVER: 9.2 g
  A/G: 0.9
  ALP: 1375.8 IU/L
  ALT: 36.6 IU/L
  AST: 74.2 IU/L
  BUN: 10.4 mg/dL
  CRE: 0.2 mg/dL
  Ca: 10.8 mg/dL
  Cl: 106.6 meq/L
  DBIL: 0.004 mg/dL
  GLC: 169.8 mg/dL
  IP: 8.2 mg/dL
  K: 4 meq/L
  LDH: 116.6 IU/L
  Na: 142.6 meq/L
  PL: 126.2 mg/dL
  RALB: 2.4 g/dL
  TBIL: 0.068 mg/dL
  TC: 63.4 mg/dL
  TG: 54.2 mg/dL
  TP: 5.1 g/dL
  gamma-GTP: 1.8 IU/L
6 h
  TERMINAL_BW: 201.9 g
  APTT: 18.2 s
  Bas: 0.2%
  Eos: 0.8%
  Fbg: 279.2 mg/dL
  Hb: 13.1 g/dL
  Ht: 40.9%
  Lym: 79.6%
  MCH: 20.9 pg
  MCHC: 32.1%
  MCV: 65.2 fL
  Mono: 3%
  Neu: 15.8%
  PT: 13.5 s
  Plat: 123.7 x10_4/uL
  RBC: 628.2 x10_4/ul
  Ret: 8.4%
  WBC: 61.1 x10_2/uL
  KIDNEY_L: 0.9 g
  KIDNEY_R: 0.9 g
  KIDNEY_TOTAL: 1.7 g
  LIVER: 8.4 g
  A/G: 0.9
  ALP: 1420 IU/L
  ALT: 35.2 IU/L
  AST: 69.8 IU/L
  BUN: 8 mg/dL
  CRE: 0.2 mg/dL
  Ca: 10.7 mg/dL
  Cl: 107.4 meq/L
  DBIL: 0.006 mg/dL
  GLC: 175 mg/dL
  IP: 8.9 mg/dL
  K: 4.1 meq/L
  LDH: 101.8 IU/L
  Na: 142 meq/L
  PL: 137.8 mg/dL
  RALB: 2.4 g/dL
  TBIL: 0.07 mg/dL
  TC: 76.2 mg/dL
  TG: 45.6 mg/dL
  TP: 5.1 g/dL
  gamma-GTP: 1.4 IU/L
9 h
  TERMINAL_BW: 201.7 g
  APTT: 17.2 s
  Bas: 0%
  Eos: 1%
  Fbg: 308 mg/dL
  Hb: 13.7 g/dL
  Ht: 43%
  Lym: 71.2%
  MCH: 20.7 pg
  MCHC: 31.8%
  MCV: 65 fL
  Mono: 3.6%
  Neu: 23.8%
  PT: 13.3 s
  Plat: 131.4 x10_4/uL
  RBC: 661 x10_4/ul
  Ret: 7.7%
  WBC: 64.3 x10_2/uL
  KIDNEY_L: 0.9 g
  KIDNEY_R: 0.9 g
  KIDNEY_TOTAL: 1.8 g
  LIVER: 8.3 g
  A/G: 0.9
  ALP: 1435.8 IU/L
  ALT: 28.6 IU/L
  AST: 63.2 IU/L
  BUN: 7.6 mg/dL
  CRE: 0.2 mg/dL
  Ca: 10.7 mg/dL
  Cl: 107.6 meq/L
  DBIL: 0.002 mg/dL
  GLC: 178.2 mg/dL
  IP: 9.7 mg/dL
  K: 4 meq/L
  LDH: 106.2 IU/L
  Na: 141.6 meq/L
  PL: 151 mg/dL
  RALB: 2.5 g/dL
  TBIL: 0.066 mg/dL
  TC: 83.8 mg/dL
  TG: 65.2 mg/dL
  TP: 5.3 g/dL
  gamma-GTP: 1.2 IU/L
24 h
  TERMINAL_BW: 214.6 g
  APTT: 17.3 s
  Bas: 0%
  Eos: 1%
  Fbg: 290.8 mg/dL
  Hb: 13.9 g/dL
  Ht: 42.1%
  Lym: 77.8%
  MCH: 20.7 pg
  MCHC: 32.9%
  MCV: 62.9 fL
  Mono: 2.4%
  Neu: 18.4%
  PT: 12.8 s
  Plat: 123 x10_4/uL
  RBC: 670.2 x10_4/ul
  Ret: 6.7%
  WBC: 66.8 x10_2/uL
  KIDNEY_L: 0.9 g
  KIDNEY_R: 0.9 g
  KIDNEY_TOTAL: 1.9 g
  LIVER: 9.4 g
  A/G: 0.9
  ALP: 1599.4 IU/L
  ALT: 46 IU/L
  AST: 67.6 IU/L
  BUN: 17.2 mg/dL
  CRE: 0.2 mg/dL
  Ca: 11.2 mg/dL
  Cl: 105.2 meq/L
  DBIL: 0.018 mg/dL
  GLC: 178.8 mg/dL
  IP: 8.6 mg/dL
  K: 4.4 meq/L
  LDH: 145.4 IU/L
  Na: 142 meq/L
  PL: 157.6 mg/dL
  RALB: 2.6 g/dL
  TBIL: 0.056 mg/dL
  TC: 83 mg/dL
  TG: 112.4 mg/dL
  TP: 5.7 g/dL
  gamma-GTP: 1 IU/L
